Measurements reported in paper PMC8274277 (Antiviral Research, 2021).
Read-outs that look alike come from different tables or passages of the source.

What was measured:
SARS-CoV-2 [1] = assay: Antiviral assay using bronchial human airway epithelium; format: cell-based, SARS-CoV-2 strain BavPat1
SARS-CoV-2 [2] = tested on: SARS-CoV-2; design: species or system golden Syrian hamsters; details: hamster, in vivo
SARS-CoV-2 [3] = assay: Lung histology of infected hamsters; format: in vivo, golden Syrian hamsters; details: sacrificed at 5 dpi
[4] = hospitalized COVID-19 patients; ref Aman et al., 2021; cited from earlier work
SARS-CoV-2 [5] = format: cell-based, SARS-CoV-2 strain BavPat1; details: VeroE6 cells

Structure (SMILES): Cc1ccc(NC(=O)c2ccc(CN3CCN(C)CC3)cc2)cc1Nc1nccc(-c2cccnc2)n1 [Imatinib]
- viral RNA yields in apical washes (SARS-CoV-2 [1]): small significant reduction
- antiviral activity (viral RNA yields and infectious titres in apical washes) (SARS-CoV-2 [1]; […], imatinib 10, 5, remdesivir 10 μM): no other significant antiviral activity
- molecular plasma viral loads (SARS-CoV-2 [2]; po): did not affect significantly
- lung histopathological impairements vs untreated group (SARS-CoV-2 [3]; first experiment, 32 mg/day): significant improvement
- lung histopathology grade severity (SARS-CoV-2 [3]; second experiment, 32, 16 and 8 mg/day): did not led to a significant improvement
- time to discontinuation of supplemental oxygen and mechanical ventilation [4]: does not reduce the time to discontinuation of supplemental oxygen and mechanical ventilation

Structure (SMILES): Cc1ccc(NC(=O)c2ccc(CN3CCN(C)CC3)cc2)cc1Nc1nc(-c2cccnc2)cs1 [Masitinib]
- selectivity Index (SI, CC50/EC50) (SARS-CoV-2 [5]): 11.5

Structure (SMILES): NC(=O)c1nc(F)c[nH]c1=O [Favipiravir]
- lung infectious titers (TCID50 assay) (SARS-CoV-2 [2]): significant reductions
- lung viral RNA yields (RT-qPCR) (SARS-CoV-2 [2]): significant reductions
- viral replication in clarified lung homogenates and plasma (SARS-CoV-2 [2]): significant reduction of viral replication

Structure (SMILES): O=C(Nc1ccc(OC(F)(F)Cl)cc1)c1cnc(N2CC[C@@H](O)C2)c(-c2cc[nH]n2)c1 [Asciminib]
- selectivity Index (SI, CC50/EC50) (SARS-CoV-2 [5]): 1.1
- antiviral activity (SARS-CoV-2 [5]; SARS-CoV-2): did not show any antiviral activity

Structure (SMILES): CCC(CC)COC(=O)[C@H](C)N[P@](=O)(OC[C@H]1O[C@@](C#N)(c2ccc3c(N)ncnn23)[C@H](O)[C@@H]1O)Oc1ccccc1 [Remdesivir]
- antiviral activity (viral RNA yields and infectious titres in apical washes) (SARS-CoV-2 [1]): strong antiviral activity
